# Several values for one entry are separate records, joined by “and”; a condition that tells them apart may be missing. Equal values may be shown once. Marks after values point to notes of the source that are not given here.
# What was measured:
# Assay type in all cases: in vivo, Sprague Dawley rats
# [1] = system: ovariectomized (OVX) rats; experiment: Four day dosing regimen, post-menopausal rat model: wet uterine weight; conditions: OVX rats, oral, daily for 4 days
# Description: (§1) Animals were dosed daily for 4 days. […] A blood sample was collected by cardiac puncture.
# [2] = system: ovariectomized (OVX) rats; experiment: Serum cholesterol analysis, four day dosing; conditions: Rattus norvegicus, po, 96 h, OVX rats, oral, daily for 4 days, read-out: Serum Cholesterol (% dec. OVX)
# Description: as §1
# Blood samples were allowed to clot at room temperature for 2 hours, and serum was obtained following centrifugation for 10 minutes at 3000 rpm. Serum cholesterol was determined using a Boehringer Mannheim Diagnostics high performance cholesterol assay. Briefly the cholesterol was oxidized to cholest-4-en-3-one and hydrogen peroxide. The hydrogen peroxide was then reacted with phenol and 4-aminophenazone in the presence of peroxidase to produce a p-quinone imine dye, which was read spectrophotemetrically at 500 nm. Cholesterol concentration was then calculated against a standard curve. The entire assay was automated using a Biomek Automated Workstation.
# [3] = system: uterine eosinophil peroxidase activity; experiment: Uterine eosinophil peroxidase (EPO) assay, four day dosing; conditions: OVX rats, oral, daily for 4 days
# Description: as §1
SMILES,Uterine Weight (% inc. OVX) ([1]; dose 0.01 mg/kg),inhibition in vivo at 0.01 mg/kg ([2]; dose 0.01 mg/kg) [%],inhibition in vivo at 0.1 mg/kg ([2]; dose 0.1 mg/kg) [%],inhibition in vivo at 10 mg/kg [2] [%],Uterine EPO (Vmax) ([3]; dose 0.01 mg/kg),Uterine EPO (Vmax) ([3]; dose 0.1 mg/kg),Uterine EPO (Vmax) ([3]; dose 1 mg/kg),Uterine Weight (% inc. OVX) ([1]; dose 0.1 mg/kg),Uterine Weight (% inc. OVX) ([1]; dose 1 mg/kg),Uterine Weight (% inc. OVX) ([1]; dose 10 mg/kg),Uterine EPO (Vmax) ([3]; dose 10 mg/kg),inhibition in vivo at 1 mg/kg ([2]; dose 1 mg/kg) [%]
O=C(c1ccc(OCC(=O)N2CCCC2)cc1)c1c(-c2ccc(O)cc2)sc2cc(O)ccc12 [Compound 8],−22.9,27.2,17.4,70.3,3.5,3.6 Vmax and 4.4 Vmax,6.1 Vmax and 3.7 Vmax,–,–,–,–,–
O=C(c1ccc(OCC(=O)N2CCCCC2)cc1)c1c(-c2ccc(O)cc2)sc2cc(O)ccc12 [Compound 9],–,–,–,–,–,2.8 Vmax,3.6 Vmax,−10.0,6.5 % inc. OVX,51.7* % inc. OVX,32 Vmax,–
O=C(c1ccc(OCCN2CCCC2=O)cc1)c1c(-c2ccc(O)cc2)sc2cc(O)ccc12 [Compound 6],–,–,–,–,–,3.6 Vmax,1.4 Vmax,−9,15.4 % inc. OVX,40.3* % inc. OVX,3.7 Vmax,–
N#CCOc1ccc(C(=O)c2c(-c3ccc(O)cc3)sc3cc(O)ccc23)cc1 [Compound 14],–,–,–,91.1,–,3.3 Vmax,2.4 Vmax,18.8,14.6 % inc. OVX,124.6* % inc. OVX,145.8* Vmax,–
O=C(c1ccc(OCCN2CCCCC2=O)cc1)c1c(-c2ccc(O)cc2)sc2cc(O)ccc12 [Compound 3],–,–,–,–,–,8.0 Vmax,7.8 Vmax,13.3,17.8 % inc. OVX,57.6* % inc. OVX,8.9 Vmax,–
O=C(NCCOc1ccc(C(=O)c2c(-c3ccc(O)cc3)sc3cc(O)ccc23)cc1)NC1CCCCC1 [Compound 20],–,–,–,–,–,3.0 Vmax,2.5 Vmax,−29.9,−27.4 % inc. OVX,−32.7 % inc. OVX,2.9 Vmax,–
CN(C)C(=O)COc1ccc(C(=O)c2c(-c3ccc(O)cc3)sc3cc(O)ccc23)cc1 [Compound 12],–,–,–,–,–,3.7 Vmax,6.7 Vmax,−7.7,15.4 % inc. OVX,60.7* % inc. OVX,122.3* Vmax,–
CC(=O)N(CCOc1ccc(C(=O)c2c(-c3ccc(O)cc3)sc3cc(O)ccc23)cc1)C1CCCCC1 [Compound 19],–,–,–,52.2,–,5.4 Vmax,3.7 Vmax,7,−25.5* % inc. OVX,47.0* % inc. OVX,29.3* Vmax,20.1
